Experimental data as given in publication PMC8318231, “Rate-of-Kill (RoK) assays to triage large compound sets for Chagas disease drug discovery: Application to GSK Chagas Box” (PLoS Neglected Tropical Diseases, 2021).

System: T. cruzi intracellular amastigotes in H9c2 cells
Assay: Rate-of-Kill (RoK) high-content imaging assay, amastigotes per cell (AM/CELL) and curve descriptors
Type: cell-based, Trypanosoma cruzi
Parameters: key to ME_24h / ME_48h / ME_72h: % reduction in parasite burden (cidal response); t50pct_MCC50 / t50pct_Cmax: unit not given here
Details: for ME_24h: 24h; for ME_48h: 48h; for ME_72h: 72h; for tlag_Cmax / t50pct_Cmax / t50%_Cmax: at Cmax; for ME_24h (%): maximum effect at 24 h; for ME_24h (%) / ME_48h (%) / ME_72h (%): RoK assay; for ME_48h (%): maximum effect at 48 h; for ME_72h (%): maximum effect at 72 h; for ME 24h (maximum effect at 24 hours, intracellular amastigotes): maximum percentage of parasite burden reduction reached by any concentration
Summary of the method: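 H9c2 cardiomyocytes infected with T. cruzi trypomastigotes (MOI 8, 18 h), then compounds tested at 5 μM single shot or 11-point 1/3 dilution from 50 μM. DRAQ5-stained nuclei imaged over a time course. Amastigotes per cell normalised to infected cells at 4 h (0%) and non-infected cells (100%).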

| SMILES | ME_24h (figure 5) | ME_48h (figure 5) | ME_72h (figure 5) | MCCE (RoK curve descriptor) [µM] | AM/CELL NORM (Time 4, sheet figure 4 A) | AM/CELL NORM (Time 24, sheet figure 4 A) | AM/CELL NORM (Time 48, sheet figure 4 A) | AM/CELL NORM (Time 72, sheet figure 4 A) | tlag_Cmax [h] | t50pct_Cmax (figure 5) | tlag_Cmax (figure 5) | t50pct_MCC50 (at MCC50, figure 5) | tlag_MCC50 (at MCC50, figure 5) | MCC50 (figure 5) [µM] | MCCE (figure 5) | ME_24h (%) | ME_48h (%) | ME_72h (%) | ME 24h (maximum effect at 24 hours, intracellular amastigotes) [%] | MCC50 (RoK curve descriptor) [µM] | further results |
| --- | --- | --- | --- | --- | --- | --- | --- | --- | --- | --- | --- | --- | --- | --- | --- | --- | --- | --- | --- | --- | --- |
| O=C(O)C(F)(F)F.O=c1ccc2ccc(F)c3c2n1C[C@H]3CN1CCC(NCc2cc3ccccc3o2)CC1 [TCMDC-143301] | 26.9481 | 43.1407 | 49.4796 | 0.2 | 0.9981 | 26.9481 | 43.1407 | 49.4796 | 4.0 | 72 | 4 | 72 | 72 | 50 | 0.2058 | 27.0 | 43.1 | 49.5 | 26.9481 |  |  |
| CS(=O)(=O)NC1CCC(Oc2cc3cnccc3cc2-c2ccsc2)CC1.O=C(O)C(F)(F)F (stereo not shown) [TCMDC-143302] | 1.036 | 27.0388 | 21.5908 | 0.6 | -2.284 | 1.036 | 27.0388 | -4.309 | 4.0 | 72 | 4 | 72 | 72 | 50 | 0.6173 | 1.0 | 27.0 | 21.6 | 1.036 |  |  |
| Cc1c(C(=O)NCCCCn2ccnc2)oc2c(C)cccc12 [TCMDC-143304] | -97.6451 | -43.6144 | 81.5916 | 0.6 | -4.678 | -97.6451 | -43.6144 | 60.7007 | 24.0 | 72 | 24 | 72 | 48 |  | 0.6173 | -97.7 | -43.6 | 81.6 | -97.6451 | 1.9 | t50%_Cmax: 72.0 h; t50%_MCC50 (at MCC50): 72.0 h; tlag_MCC50 (at MCC50): 48.0 h; MCC50 (figure 5, in µM): 1.852 |
| COc1ccc(C(=O)Nc2cc(C(F)(F)F)ccc2N2CCOCC2)c(OC)c1 [TCMDC-143310] | 64.6908 | 80.1309 | 94.1302 | 0.6 | -57.2428 | 64.6908 | 80.1309 | 94.1302 | 4.0 | 24 | 4 | 72 | 4 |  | 0.6173 | 64.7 | 80.1 | 94.1 | 64.6908 | 1.9 | t50%_Cmax: 24.0 h; t50%_MCC50 (at MCC50): 72.0 h; tlag_MCC50 (at MCC50): 4.0 h; MCC50 (figure 5, in µM): 1.852 |
| FC(F)(F)c1cc(C2CCCN(Cc3c[nH]c4ccccc34)C2)nc2ncnn12.O=C(O)C(O)C(O)C(=O)O (stereo not shown) [TCMDC-143311] | 20.357 | 59.0796 | 83.5796 | 16.7 | -4.224 | 20.357 | 59.0796 | 83.5796 | 4.0 | 48 | 4 | 48 | 4 | 50 | 16.6667 | 20.4 | 59.1 | 83.6 | 20.357 | 50.0 | t50%_Cmax: 48.0 h; t50%_MCC50 (at MCC50): 48.0 h; tlag_MCC50 (at MCC50): 4.0 h |
| COc1ccc(NS(=O)(=O)c2cc(NC(=O)Cc3ccc(C)cc3)ccc2N2CCOCC2)cc1 [TCMDC-143313] | -207.804 | -855.253 | -1487.77 | 0.2 |  |  |  |  | 72.0 | 72 | 72 | 72 | 72 | 50 | 0.2058 | -207.8 | -855.3 | -1487.8 | 23.7828 |  | AM/CELL NORM (Time 4, figure 4 A): -12.1404; AM/CELL NORM (Time 24, figure 4 A): -266.8; AM/CELL NORM (Time 48, figure 4 A): -1156.6; AM/CELL NORM (Time 72, figure 4 A): -1899.09 |
| COc1cc(NC(=O)Nc2cccc(CNC(=O)OC3CCCCC3)c2)ccc1-c1cnco1 [TCMDC-143376] | -229.157 | -76.0857 | -0.198 | 0.6 |  |  |  |  | 24.0 | 72 | 24 | 72 | 72 | 50 | 0.6173 | -229.2 | -76.1 | -0.2 | 42.5513 |  | AM/CELL NORM (Time 4, figure 4 A): -2.926; AM/CELL NORM (Time 24, figure 4 A): -229.157; AM/CELL NORM (Time 48, figure 4 A): -76.0857; AM/CELL NORM (Time 72, figure 4 A): -16.3246 |
